The source made the active and inactive calls.
Assays:
[1] = biological target: T1, Polyadenylate-binding protein 1 (Homo sapiens, UniProt P11940); assay: PABP1 MLLE–PAM2 interaction inhibitors, dose response, miRNA deadenylation inhibitor project, biochemical, fluorescence polarization, Cy5-PAM2 peptide, secondary (AID 602260); assay type: functional; details: read-out: IC50_Mean
[2] = biological target: T1, Polyadenylate-binding protein 1; assay: PABP1 MLLE–PAM2 binding inhibitor potency, dose response, biochemical, fluorescence polarization, FITC-PAM2 peptide (AID 602259); assay type: functional; details: read-out: IC50_Mean
[3] = NIH-3T3 fibroblast cytotoxicity, dose response, cytotoxicity control, cell-based, fluorescence, Alamar Blue, secondary assay (AID 2327); assay type: functional;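 also: NIH-3T3 mouse fibroblasts cultured with fluconazole at 8 µg/mL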
[4] = C. albicans growth with fluconazole, confirmation, fluorescence, retest (AID 2467); assay type: functional, cell-based
[5] = Luminescence Cell-Based Dose Retest to Confirm Inhibitors of Cancer Stem Cells. [Related pubchem assays (depositor defined):AID2717, AID2721]; assay type: functional; details: Homo sapiens
cells = assay type: functional
[6] = biological target: T2, Heat shock factor protein 1 (Mus musculus, UniProt P38532); assay: HSF1 potentiators in luciferase reporter cells, confirmation, cell-based, NIH3T3, luminescence, dose retest (AID 435004); assay type: functional;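 also: stress induced by proteasome inhibitor MG132 added 30 min after compound; luciferase reporter driven by HSF1 response element in NIH3T3 cells; actives raise luminescence as potentiators of the MG132 stress response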
T2 sequence (P38532 whole entry): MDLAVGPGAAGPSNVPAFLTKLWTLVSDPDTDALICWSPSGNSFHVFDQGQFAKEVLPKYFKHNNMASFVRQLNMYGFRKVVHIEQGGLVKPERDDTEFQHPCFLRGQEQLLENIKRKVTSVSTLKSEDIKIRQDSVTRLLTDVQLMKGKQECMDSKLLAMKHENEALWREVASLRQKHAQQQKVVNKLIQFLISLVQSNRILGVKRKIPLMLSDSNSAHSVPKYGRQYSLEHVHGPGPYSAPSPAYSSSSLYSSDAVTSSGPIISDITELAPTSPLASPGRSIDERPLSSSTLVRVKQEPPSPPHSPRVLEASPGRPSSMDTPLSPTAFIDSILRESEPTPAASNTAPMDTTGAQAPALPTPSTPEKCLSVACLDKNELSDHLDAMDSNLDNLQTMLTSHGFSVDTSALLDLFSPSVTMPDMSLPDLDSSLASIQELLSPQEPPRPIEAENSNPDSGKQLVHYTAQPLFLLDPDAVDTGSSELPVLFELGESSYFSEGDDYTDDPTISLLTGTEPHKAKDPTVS

Large T antigen = Large T antigen (Simian virus 40, UniProt P03070); assay type: functional, Betapolyomavirus macacae;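 also: Confirmatory-stage PubChem screen for compounds that inhibit SV40 T antigen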
Chain of Large T antigen (P03070 whole entry): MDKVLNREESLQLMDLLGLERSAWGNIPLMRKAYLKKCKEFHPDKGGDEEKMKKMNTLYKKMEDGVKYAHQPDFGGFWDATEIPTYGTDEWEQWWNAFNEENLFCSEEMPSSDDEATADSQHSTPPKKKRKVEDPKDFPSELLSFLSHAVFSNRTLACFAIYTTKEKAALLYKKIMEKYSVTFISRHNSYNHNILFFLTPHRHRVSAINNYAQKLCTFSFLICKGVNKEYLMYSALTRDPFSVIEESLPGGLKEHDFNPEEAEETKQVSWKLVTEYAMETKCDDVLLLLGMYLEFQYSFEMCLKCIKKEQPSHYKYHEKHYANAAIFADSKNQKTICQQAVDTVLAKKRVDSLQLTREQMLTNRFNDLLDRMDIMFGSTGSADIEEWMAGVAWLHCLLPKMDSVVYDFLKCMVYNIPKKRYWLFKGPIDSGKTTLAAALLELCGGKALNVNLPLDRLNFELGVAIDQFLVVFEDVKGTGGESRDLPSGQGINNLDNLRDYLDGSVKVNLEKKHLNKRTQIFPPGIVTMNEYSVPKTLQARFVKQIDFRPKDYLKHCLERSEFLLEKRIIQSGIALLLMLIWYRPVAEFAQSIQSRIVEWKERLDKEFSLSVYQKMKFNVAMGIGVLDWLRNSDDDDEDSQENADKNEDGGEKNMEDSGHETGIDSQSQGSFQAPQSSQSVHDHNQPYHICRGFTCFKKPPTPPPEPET

[7] = biological target: T3, Rac GTPase-activating protein 1 (Homo sapiens, UniProt Q9H0H5); assay: MgcRacGAP GTPase-activating activity inhibitors, confirmation, biochemical, ADP Hunter fluorescence, primary and confirmatory (AID 624330); assay type: functional
T3 sequence (Q9H0H5 whole entry): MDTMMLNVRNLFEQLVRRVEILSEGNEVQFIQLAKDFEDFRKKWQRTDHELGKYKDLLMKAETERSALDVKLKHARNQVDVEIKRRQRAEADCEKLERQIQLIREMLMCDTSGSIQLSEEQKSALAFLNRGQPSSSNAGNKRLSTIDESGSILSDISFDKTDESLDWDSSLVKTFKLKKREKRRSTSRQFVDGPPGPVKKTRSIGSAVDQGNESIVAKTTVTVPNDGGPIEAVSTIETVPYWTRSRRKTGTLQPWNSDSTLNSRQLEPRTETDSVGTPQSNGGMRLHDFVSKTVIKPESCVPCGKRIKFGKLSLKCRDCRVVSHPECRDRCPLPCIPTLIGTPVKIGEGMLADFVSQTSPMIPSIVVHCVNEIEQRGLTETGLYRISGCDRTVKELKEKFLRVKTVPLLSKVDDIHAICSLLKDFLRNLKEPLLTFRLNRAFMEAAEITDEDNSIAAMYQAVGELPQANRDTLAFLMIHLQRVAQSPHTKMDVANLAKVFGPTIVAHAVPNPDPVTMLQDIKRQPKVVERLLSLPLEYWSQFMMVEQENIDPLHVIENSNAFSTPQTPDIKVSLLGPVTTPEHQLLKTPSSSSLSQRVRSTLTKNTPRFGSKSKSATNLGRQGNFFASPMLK
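For AC50 in this document: cells exposed to compound for roughly 70 hours or longer before luminescence read.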

T1 sequence (P11940 whole entry): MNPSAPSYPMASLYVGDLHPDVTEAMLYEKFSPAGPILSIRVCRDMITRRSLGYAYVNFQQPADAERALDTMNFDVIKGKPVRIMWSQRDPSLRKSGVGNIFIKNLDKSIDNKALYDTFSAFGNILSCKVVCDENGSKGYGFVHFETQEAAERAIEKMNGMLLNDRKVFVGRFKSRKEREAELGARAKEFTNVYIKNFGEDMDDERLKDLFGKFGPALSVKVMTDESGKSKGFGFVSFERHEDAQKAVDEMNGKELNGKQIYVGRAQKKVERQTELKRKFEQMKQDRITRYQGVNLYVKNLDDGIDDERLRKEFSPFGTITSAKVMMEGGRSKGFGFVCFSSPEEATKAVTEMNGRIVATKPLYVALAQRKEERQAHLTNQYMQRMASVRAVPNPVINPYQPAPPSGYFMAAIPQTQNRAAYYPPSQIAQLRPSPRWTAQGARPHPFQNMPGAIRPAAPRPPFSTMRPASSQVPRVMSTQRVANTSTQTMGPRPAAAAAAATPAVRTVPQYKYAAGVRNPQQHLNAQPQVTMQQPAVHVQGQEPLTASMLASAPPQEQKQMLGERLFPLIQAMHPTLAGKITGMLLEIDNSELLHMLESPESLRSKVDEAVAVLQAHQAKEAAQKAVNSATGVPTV

| Structure (SMILES) | EC50 [6] | IC50 (Large T antigen) | also measured |
| --- | --- | --- | --- |
| O=C(O)c1ccccc1SC1CC(=O)N(c2cccc3ccccc23)C1=O (stereo not drawn) |  |  | IC50 [1]: > 66 µM (inactive); IC50 [2]: > 66 µM (inactive) |
| Cc1cc(C(=O)NNc2ccc(Cl)cc2)no1 |  |  | EC50 [3]: 2.59 µM (active); EC50 [4]: 0.819 µM (active); AC50 [5]: 1.35 µM (active) |
| COCCSc1nnc(NC(=O)C2CC(=O)N(c3ccc(C)cc3)C2)s1 (stereo not drawn) |  |  | EC50 [3]: > 160 µM (inactive); EC50 [4]: > 38 µM (not active) |
| Cc1ccccc1-n1nnc2c(=O)oc3ccccc3c21 | > 260 µM (inactive) |  | IC50 (cells): 1.13 µM (active) |
| COc1ccc(S(=O)(=O)N[C@@H](Cc2ccccc2)C(=O)N2CC[C@@]3(O)CCCC[C@H]3C2)cc1 | > 260 µM (inactive) |  |  |
| O=C(Nc1cccc(Cl)c1)C1CCCN(S(=O)(=O)c2ccc(F)cc2)C1 (stereo not drawn) | > 260 µM (inactive) |  |  |
| CC(=O)NCCc1nc2ccccc2n1CCOc1cccc(C)c1 | > 260 µM (inactive) |  |  |
| Oc1ccc(/C=N/Nc2ccc(Cl)nn2)cc1O |  | 8.16 µM (active) |  |
| CN1CCN(/N=C/c2c[nH]c3ccccc23)CC1 |  | 15.4 µM (active) |  |
| O=C1/C(=N/n2cnnc2)c2ccccc2N1Cc1ccccc1 |  | 24.8 µM (active) |  |
| COc1cc(/C=N/NC(=O)c2ccoc2C)cc(OC)c1O |  | 33.9 µM (active) |  |
| COc1cc(/C=N/NC(=O)CC2C(=O)NN=C2C)ccc1O (stereo not drawn) |  | 11.5 µM (active) | IC50 [7]: 53.7 µM (active) |
